Laboratory results published in patent US7981939B2, “Application of 2-bromide-isovanillin for the manufacture of a medicament for anti-cancer or/and radiation/chemotherapy sensitization” (Institute of Radiation Medicine, Academy of Military …, priority 2005, dated 2011).

Key:
[1] = system: human liver cancer cell line HepG2; experiment: Clonogenic assay, HepG2 compared with normal hepatic cells LO2; assay type: cell-based; settings: 5-80 μmol/L, 24 hrs
Description: By way of example, human liver cancer cell line HepG2 and normal human hepatic cell line LO2 were used to study the inhibitory effect of 2-bromo-isovanillin on the growth of liver cancer cells and normal cells by clonogenic assay. Specifically, five groups were formed according to the drug concentration, and the liver cancer cells HepG2 and normal hepatic cells LO2 were respectively treated with 5, 10, 20, 40 and 80 μmol/L 2-bromo-isovanillin for 24 hrs. Then cell survival was measured by clonogenic assay (FIG. 8). In addition, the cell cycle profile and apoptotic effect were compared using flow cytometry.

[2] = molecular target: T1, nuclear protein DNA-PKcs serine/threonine protein kinase (Homo sapiens, UniProt P78527); experiment: DNA-PKcs kinase activity in nuclear protein of treated HepG2 cells; assay type: cell-based; settings: 24 hrs
T1 construct: adding nuclear proteins to the solid phase reaction system; endogenous in cells; host or cells: HepG2 human liver cancer cells (nuclear protein extract)
Description: The activity of nuclear protein DNA-PKcs serine/threonine protein kinase in human liver cancer cells HepG2 treated with 0, 10, 20, 40, 100 μmol/L 2-bromo-isovanillin for 24 hrs was determined by using […] DNA dependent protein kinase assay kit (Promega), according to the manufacturer's instructions, and the treatment with 100 μmol/L vanillin for the same period of time served as control. Basically, the assay was carried out by immobilizing the phosphorylation substrate specific to DNA-PKcs, i.e., a peptide derived from p53 protein onto a cellulose membrane, adding nuclear proteins to the solid phase reaction system, isotopically labeling the substrate by phosphorylation using γ-^32P ATP, removing non-specific signals after the isotope labeling, and visualizing the kinase activity upon X-ray film developing.

[3] = system: tumor cells; experiment: Tumor inhibition upon administration for 6 consecutive days (summary statement)

COc1ccc(C=O)c(Br)c1O [2-bromo-isovanillin, 2-bromo-3-hydroxy-4-methoxybenzaldehyde]
killing effect on HepG2 compared with normal hepatic cells [1]: significantly higher | effect on DNA-PKcs kinase activity ([2]; HepG2, 20 μmol/L): significantly inhibited | inhibitory effect on DNA-PKcs kinase activity ([2]; HepG2, 40-100 μmol/L, compared with 20 μmol/L): more remarkable | tumor inhibition [3]: 80-95%
